# Laboratory results reported in ChEMBL document CHEMBL4673289, “Design, synthesis and biological evaluation of imidazolopyridone derivatives as novel BRD4 inhibitors” (Bioorg Med Chem, 2021).
# pIC50: −log10 of the molar value. Activity calls are given as the source filed them. The calls are words filed in the database; no cut-off is given here.
# Legend:
# [1] = test system: SMMC-7721; test: Antiproliferative activity against human SMMC-7721 cells assessed as cell growth inhibition at 2 uM measured after 48 to 72 hrs by MTT assay relative to control; format: functional; settings: time 48-72 hrs, read-out: GI
# [2] = test system: BXPC-3; test: Induction of apoptosis in human BXPC-3 cells assessed as increase in cytochrome C expression at 4 to 16 uM measured after 48 hrs by Western blot analysis; format: functional, cell-based; settings: dose 4-16 µM
# [3] = test system: BXPC-3; test: Anticlonogenic activity against human BXPC-3 cells assessed as reduction in colony formation at 0.25 umol/L incubated for 10 days by crystal violet staining based assay; format: functional, cell-based; settings: dose 0.25 µmol/L, time 10.0 day
# [4] = test system: BXPC-3; test: Cell cycle arrest in human BXPC-3 cells assessed as accumulation at sub-G1 phase at 8 to 16 uM measured after 48 hrs by AnnexinV-FITC/propidium iodide staining based flow cytometry; format: functional; settings: dose 8-16 µM
# [5] = biological target: T1, Bromodomain-containing protein 4 (Homo sapiens, UniProt O60885); test: Inhibition of BRD4 (unknown origin) preincubated for 15 mins followed by substrate addition and measured after 1 hr by AlphaScreen assay relative to control
# [6] = test system: BXPC-3; test: Cell cycle arrest in human BXPC-3 cells assessed as acumulation at G0/G1 phase by measuring downregulation of CyclinA2 at 4 to 16 uM measured after 48 hrs by Western blot analysis; format: functional, cell-based; settings: dose 4-16 µM
# [7] = test system: BXPC-3; test: Induction of apoptosis in human BXPC-3 cells assessed as upregulation of Bax at 4 to 16 uM measured after 48 hrs by Western blot analysis; format: functional, cell-based; settings: dose 4-16 µM
# [8] = test system: BXPC-3; test: Induction of apoptosis in human BXPC-3 cells assessed as increase in cleaved PARP expression at 4 to 16 uM measured after 48 hrs by Western blot analysis; format: functional, cell-based; settings: dose 4-16 µM
# [9] = test system: BXPC-3; test: Inhibition of c-Myc protein expression in human BXPC-3 cells at 4 to 16 uM measured after 48 hrs by Western blot analysis; format: functional, cell-based; settings: dose 4-16 µM
# [10] = test system: Panc02; test: Induction of apoptosis in mouse Panc02 cells allografted in BALB/c mouse assessed as condensed chromatin at 50 mg/kg, ip administered every day in combination with gemcitabine at 100 mg/kg measured after 20 days by hematoxylin and eosin staining based assay; format: functional, organism-based; settings: time 20.0 day
# [11] = biological target: T1, Bromodomain-containing protein 4; test: Inhibition of BRD4 (unknown origin) at 1 uM preincubated for 15 mins followed by substrate addition and measured after 1 hr by AlphaScreen assay relative to control; settings: time 75.0 min
# [12] = test system: BXPC-3; test: Induction of apoptosis in human BXPC-3 cells assessed as upregulation of caspase 3 at 4 to 16 uM measured after 48 hrs by Western blot analysis; format: functional, cell-based; settings: dose 4-16 µM
# [13] = test system: BXPC-3; test: Inhibition of BRD4 protein expression in human BXPC-3 cells at 4 to 16 uM measured after 48 hrs by Western blot analysis; format: functional, cell-based; settings: dose 4-16 µM
# [14] = test system: BXPC-3; test: Induction of apoptosis in human BXPC-3 cells assessed as late apoptotic cells at 16 uM measured after 48 hrs by AnnexinV/propidium iodide staining based flow cytometry (reference value: 1.02 %); format: functional
# [15] = test system: BXPC-3; test: Induction of apoptosis in human BXPC-3 cells assessed as activation of caspase 3 at 4 to 16 uM measured after 48 hrs by Western blot analysis; format: functional, cell-based; settings: dose 4-16 µM
# [16] = Toxicity in BALB/c mouse allografted with mouse Panc02 cells assessed as effect on body weight at 50 mg/kg, ip administered every day measured after 19 days; format: organism-based; settings: in vivo, 456 h, time 19 day
# [17] = test system: Mus musculus; test: Upregulation of caspase 3 in BALB/c mouse allografted with mouse Panc02 cells […] at 50 mg/kg, ip administered every day in combination with gemcitabine at 100 mg/kg measured after 20 days by immunohistochemical analysis; format: functional, organism-based; settings: time 20.0 day
# [18] = test system: BXPC-3; test: Induction of apoptotic cell death in human BXPC-3 cells at 4 to 16 uM measured after 48 hrs by Live/Dead dye based inverted fluorescence microscopic analysis; format: functional; settings: dose 4-16 µM
# [19] = test system: BXPC-3; test: Antiproliferative activity against human BXPC-3 cells assessed as cell growth inhibition at 2 uM measured after 48 to 72 hrs by MTT assay relative to control; format: functional; settings: time 48-72 hrs, read-out: GI
# [20] = test system: Mus musculus; test: Decrease in c-Myc expression in BALB/c mouse allografted with mouse Panc02 cells […] at 50 mg/kg, ip administered every day measured after 20 days by immunohistochemical analysis; format: functional, organism-based; settings: time 20.0 day
# [21] = test system: BXPC-3; test: Induction of apoptosis in human BXPC-3 cells assessed as early apoptotic cells at 8 uM measured after 48 hrs by AnnexinV/propidium iodide staining based flow cytometry (reference value: 1.02 %); format: functional
# [22] = test system: BXPC-3; test: Induction of apoptosis in human BXPC-3 cells assessed as early apoptotic cells at 4 uM measured after 48 hrs by AnnexinV/propidium iodide staining based flow cytometry (reference value: 1.02 %); format: functional
# [23] = test system: Mus musculus; test: Upregulation of caspase 3 in BALB/c mouse allografted with mouse Panc02 cells […] at 50 mg/kg, ip administered every day measured after 20 days by immunohistochemical analysis; format: functional, organism-based; settings: time 20.0 day
# [24] = test system: Mus musculus; test: Downregulation of Ki67 expression in BALB/c mouse allografted with mouse Panc02 cells […] at 50 mg/kg, ip administered every day measured after 20 days by immunohistochemical analysis; format: functional, organism-based; settings: time 20.0 day
# [25] = test system: BXPC-3; test: Cell cycle arrest in human BXPC-3 cells assessed as acumulation at G0/G1 phase by measuring downregulation of CDK2 at 4 to 16 uM measured after 48 hrs by Western blot analysis; format: functional, cell-based; settings: dose 4-16 µM
# [26] = test system: BXPC-3; test: Antiproliferative activity against human BXPC-3 cells assessed as cell growth inhibition measured after 48 to 72 hrs by MTT assay; format: functional, cell-based; settings: dose 2-32 µM, time 48-72 hrs
# [27] = test system: BXPC-3; test: Induction of morphological changes in human BXPC-3 cells assessed as assessed as increase in apoptotic cells at 8 uM measured after 48 hrs by light microscopic analysis; format: functional, cell-based
# [28] = test system: Mus musculus; test: Downregulation of Ki67 expression in BALB/c mouse allografted with mouse Panc02 cells […] at 50 mg/kg, ip administered every day in combination with gemcitabine at 100 mg/kg measured after 20 days by immunohistochemical analysis; format: functional, organism-based; settings: time 20.0 day
# [29] = test system: BXPC-3; test: Induction of apoptosis in human BXPC-3 cells assessed as early apoptotic cells at 16 uM measured after 48 hrs by AnnexinV/propidium iodide staining based flow cytometry (reference value: 1.02 %); format: functional
# [30] = test system: BXPC-3; test: Induction of apoptosis in human BXPC-3 cells assessed as late apoptotic cells at 8 uM measured after 48 hrs by AnnexinV/propidium iodide staining based flow cytometry (reference value: 5.15 %); format: functional
# [31] = test system: BXPC-3; test: Induction of apoptosis in human BXPC-3 cells measured after 48 hrs by AnnexinV/propidium iodide staining based flow cytometry; format: functional, cell-based; settings: dose 4-16 µM
# [32] = biological target: T1, Bromodomain-containing protein 4; test: Inhibition of BRD4 in human BXPC-3 cells assessed as blocking of BRD4-pTEFB interaction; format: cell-based
# [33] = test system: BXPC-3; test: Cell cycle arrest in human BXPC-3 cells assessed as accumulation at G1/S phase by measuring upregulation of Rb at 4 to 16 uM measured after 48 hrs by Western blot analysis; format: functional, cell-based; settings: dose 4-16 µM
# [34] = test system: BXPC-3; test: Cell cycle arrest in human BXPC-3 cells assessed as decrease in cell population at G2/M phase at 4 to 16 uM measured after 48 hrs by AnnexinV-FITC/propidium iodide staining based flow cytometry; format: functional; settings: dose 4-16 µM
smiles,measurement,setting,value
CCS(=O)(=O)Nc1ccc(Oc2ccccc2F)c(-c2cn(C)c(=O)c3cncn23)c1,inhibition of growth at 2 µM,[1],15.1%
same,Activity,[2],Active
same,Activity,[3],Active
same,Activity,[4],Active
same,pIC50,[5],7.46
same,Activity,[6],Active
same,Activity,[7],Active
same,Activity,[8],Active
same,inhibition,[9],Active
same,Activity,[10],Active
same,inhibition,[11],100%
same,Activity,[12],Active
same,inhibition,[13],Active
same,Activity,[14],19.21%
same,Activity,[15],Active
same,Activity,[16],Non-Toxic
same,Activity,[17],Active
same,Activity,[18],Active
same,inhibition of growth at 2 µM,[19],38.4%
same,Activity,[20],Active
same,Activity,[21],1.61%
same,Activity,[22],1.46%
same,Activity,[23],Active
same,Activity,[24],Active
same,Activity,[25],Active
same,growth inhibition (GI),[26],Dose-dependent effect
same,Activity,[27],Active
same,Activity,[28],Active
same,Activity,[29],2.35%
same,Activity,[30],12.36%
same,Activity,[31],Dose-dependent effect
same,inhibition,[32],Active
same,Activity,[33],Active
same,Activity,[34],Active
